In article PMC8151276, “An Integrated Approach toward NanoBRET Tracers for Analysis of GPCR Ligand Engagement” (Molecules, 2021):

Target: T1, FZD1 (Homo sapiens, UniProt Q9UP38)
T1 construct: purchased Promega (in-house HiBiT-GPCR construct library, NanoBRET)
Test: NanoBRET screen HiBiT-FZD1 in HEK293
Assay type: binding
Experimental: Each tracer candidate was screened across the entire library of HiBiT-GPCR constructs using NanoBRET as the detection modality. As depicted in Figure 4A, the specificity of interactions was evaluated through decrease in BRET due to competitive displacement of a bound tracer by excess parental compound. Each tracer was analyzed for binding to each HiBiT-GPCR fusion in the absence and in the presence of competing parental compound. Briefly, HEK293 cells were transfected with HiBiT-GPCR constructs diluted into promoterless DNA to reduce expression and maximize translocation to the cell surface. Each tracer candidate was then screened at concentrations of 1 μM and 0.1 μM across cells expressing these fusions. Cells were treated for 1.5 h with tracer either alone or in the presence of 20 μM competing parental compound (i.e., control). BRET was measured upon addition of purified LgBiT and subsequent complementation with HiBiT genetically fused to a GPCR. The specificity of interactions was assessed through a decrease in BRET signal due to competitive displacement of the bound tracer. To further gauge the robustness of these interactions, the fold response over the control (i.e., BRETtracer/BRETcontrol) was calculated. We chose a 1.5-fold response, which translates to ≥7-fold signal over noise as the minimal threshold required to score an interaction as positive. […]. Below we highlight the screening results obtained for our exemplary fluorescent tracers based on Clozapine, Amitriptyline and AZD1283.
HiBiT-GPCR DNA constructs were diluted in 10 mM Tris pH 8 to a final concentration of 0.01 μg/μL, arrayed in 96-well plates and stored at −20 °C. For transfection, HEK293 cells were suspended in Opti-MEM (without phenol red) supplemented with 2% fetal bovine serum (Seradigm) and 100 units/mL penicillin–streptomycin (Gibco) at a final concentration of 220,000 cells/mL and dispensed into white 96-well plates at 90 μL/well. Subsequent transfections and screens were carried using an Agilent Bravo Automated Liquid Handling Platform. First, the 96-well HiBiT DNA arrays were diluted 25-fold in Opti-MEM (without serum or phenol red) to a final concentration of 0.0004 μg/μL and 20 μL of the diluted DNAs were transferred into new 96-well plates. Next, promoterless carrier DNA (1 μg/μL) was diluted 25-fold (0.04 μg/μL) and then dispensed into the diluted arrays at 20 μL/well. Following brief mixing, Viafect transfection reagent (Promega) diluted 16-fold into Opti-MEM was dispensed into the plates at 40 μL/well. After mixing by pipetting, plates were incubated for 10 min on the pipetting station deck. The DNA-transfection reagent complexes were then added to plates containing cells. To facilitate the screen, 10 μL of DNA-transfection reagent complexes were added in duplicates to the top 4 and bottom 4 rows, resulting in two identical 48-well arrays per plate. Plates with transfected cells were incubated for 18–20 h at 37 °C/5% CO2. A screen of each tracer across the entire library using two different concentrations requires duplicate plates of transfected cells. Depending on the number of tracers being screened, transfections can be scaled up using the same ratios. The next day, for each tracer, four 20× screening solutions in tracer dilution buffer (Promega) were prepared: two duplicates at final concentration of 20 μM and two duplicates at a final concentration of 2 μM. A competing unmodified compound was added to one of each duplicate at a final concentration of 400 μM. The four resulting solutions were diluted 4-fold in Opti-MEM without serum or phenol red to generate 5× solutions (5 µM and 0.5 µM tracer +/− 100 μM competing compound). To screen the library, a BioTek MultiFlo FX liquid dispenser was used to dispense 22.5 µL of tracer solution to the top 4 rows and 22.5 µL tracer + competing compound solution to the 4 bottom rows. Plates were briefly mixed on an orbital shaker and incubated for 1.5 h at room temperature. […]

T1 sequence (Q9UP38 70-647): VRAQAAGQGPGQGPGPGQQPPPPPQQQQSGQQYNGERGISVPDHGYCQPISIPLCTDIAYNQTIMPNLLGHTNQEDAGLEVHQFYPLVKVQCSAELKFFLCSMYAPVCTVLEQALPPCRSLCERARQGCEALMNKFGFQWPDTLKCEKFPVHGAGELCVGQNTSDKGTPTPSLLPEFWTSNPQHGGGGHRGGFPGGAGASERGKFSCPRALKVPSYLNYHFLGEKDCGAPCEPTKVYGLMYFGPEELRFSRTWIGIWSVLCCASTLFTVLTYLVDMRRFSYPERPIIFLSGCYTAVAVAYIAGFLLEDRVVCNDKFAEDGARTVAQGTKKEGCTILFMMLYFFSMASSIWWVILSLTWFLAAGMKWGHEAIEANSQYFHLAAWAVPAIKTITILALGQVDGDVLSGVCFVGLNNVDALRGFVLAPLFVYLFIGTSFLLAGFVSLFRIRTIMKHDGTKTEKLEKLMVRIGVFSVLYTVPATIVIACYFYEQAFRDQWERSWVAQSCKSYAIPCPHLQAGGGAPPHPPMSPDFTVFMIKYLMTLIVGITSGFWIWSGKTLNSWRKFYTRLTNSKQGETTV

SMILES | NanoBRET Fold Response (FZD1, tracer 0.1μM) | NanoBRET Fold Response (FZD1, tracer 1μM) | other results
Cc1nc2n(c(=O)c1CCN1CCC(c3noc4cc(F)ccc34)CC1)CCCC2OC(=O)NCCOCCOCCOCCOCCNC(=O)CCc1ccc2n1[B-](F)(F)[N+]1=C(c3ccc[nH]3)C=CC1=C2 (centres unmarked) [Risperidone-2-NB590] | 1.02 | 1.00 | –
CCOC(=O)c1cc(C#N)c(N2CCC(C(=O)NS(=O)(=O)Cc3ccccc3/C=C/C(=O)NCCNC(=O)CCc3ccc4n3[B-](F)(F)[N+]3=C(c5ccc[nH]5)C=CC3=C4)CC2)nc1C [AZD1283-1-NB590] | – | – | NanoBRET Fold Response (FZD1, 0.1μM): 1.06; NanoBRET Fold Response (FZD1, 1μM): 1.07
Cc1cc2c(s1)Nc1ccccc1N=C2N1CCN(CCCNC(=O)CCOCCOCCOCCOCCNC(=O)CCc2ccc3n2[B-](F)(F)[N+]2=C(c4ccc[nH]4)C=CC2=C3)CC1 [Olanzapine-a-2-NB590] | 0.95 | 1.04 | –
COc1ccccc1N1CCN(CCCCN2C(=O)c3ccc(CNC(=O)CCOCCNC(=O)c4ccc(CNC(=O)CCc5ccc6n5[B-](F)(F)[N+]5=C(c7ccc[nH]7)C=CC5=C6)cc4)cc3C2=O)CC1 [NAN-190-3-NB590] | 0.83 | 1.01 | –
CC(C)N(CC[C@H](c1ccccc1)c1cc(CCNC(=O)CCOCCOCCOCCOCCNC(=O)CCc2ccc3n2[B-](F)(F)[N+]2=C(c4ccc[nH]4)C=CC2=C3)ccc1O)C(C)C [Tolterodine-2-NB590] | 0.97 | 0.97 | –
CN(C)CCC=C1c2ccccc2CCc2ccc(C(=O)NCCNC(=O)CCOCCOCCOCCOCCNC(=O)CCc3ccc4n3[B-](F)(F)[N+]3=C(c5ccc[nH]5)C=CC3=C4)cc21 [Amitriptyline-b-2-NB590] | – | – | NanoBRET Fold Response (tracer at 0.1μM, listed as amitriptyline-b-2-NB590): 0.97; NanoBRET Fold Response (tracer at 1μM, listed as amitriptyline-b-2-NB590): 1.14
O=C(CCOCCOCCOCCOCCNC(=O)CCc1ccc2n1[B-](F)(F)[N+]1=C(c3ccc[nH]3)C=CC1=C2)NCCCN1CCN(C2=Nc3ccccc3Oc3ccc(Cl)cc32)CC1 [Loxapine-a-2-NB590] | 1.17 | 1.03 | –
CN(C)CCC=C1c2ccccc2CCc2ccc(C(=O)NCCNC(=O)CCOCCOCCOCCOCCNC(=O)CCc3ccc4n3[B-](F)(F)[N+]3=C(c5ccc[nH]5)C=CC3=C4)cc21 [Amitriptyline-a-2-NB590] | – | – | NanoBRET Fold Response (tracer at 0.1μM): 0.92; NanoBRET Fold Response (tracer at 1μM): 0.98
O=C(CCc1ccc2n1[B-](F)(F)[N+]1=C(c3ccc[nH]3)C=CC1=C2)NCCOCCOCCNC(=O)OCCOCCN1CCN(C2=Nc3ccccc3Sc3ccccc32)CC1 [Quetiapine-a-2-NB590] | 1.14 | 0.96 | –
COc1ccccc1N1CCN(CCCCN2C(=O)c3ccc(CNC(=O)CCOCCOCCOCCOCCNC(=O)CCc4ccc5n4[B-](F)(F)[N+]4=C(c6ccc[nH]6)C=CC4=C5)cc3C2=O)CC1 [NAN-190-2-NB590] | 0.99 | 1.06 | –
CN1CCN(C2=Nc3cc(Cl)ccc3N(CC(=O)NCCOCCOCCOCCOCCNC(=O)CCc3ccc4n3[B-](F)(F)[N+]3=C(c5ccc[nH]5)C=CC3=C4)c3ccccc32)CC1 [Clozapine-c-2-NB590] | – | – | NanoBRET Fold Response (FZD1, 0.1μM tracer): 1.02; NanoBRET Fold Response (FZD1, 1μM tracer): 1.06
COc1ccc2[nH]c(-c3ccc(CNC(=O)CCOCCOCCOCCOCCNC(=O)CCc4ccc5n4[B-](F)(F)[N+]4=C(c6ccc[nH]6)C=CC4=C5)cc3)c(CCNC(C)=O)c2n1 [AzomelatoninICO9-2-NB590] | – | – | NanoBRET Fold Response (0.1μM tracer): 0.86; NanoBRET Fold Response (1μM tracer): 1.05
O=C(CCOCCOCCOCCOCCNC(=O)CCc1ccc2n1[B-](F)(F)[N+]1=C(c3ccc[nH]3)C=CC1=C2)NCCCN1CCN(C2=Nc3cc(Cl)ccc3Nc3ccccc32)CC1 [Clozapine-a-2-NB590] | – | – | NanoBRET Fold Response (FZD1, 0.1μM tracer): 0.98; NanoBRET Fold Response (FZD1, 1μM tracer): 0.93
CCCn1c(=O)c2[nH]c(-c3ccc(OCC(=O)NCCNC(=O)CCOCCNC(=O)c4ccc(CNC(=O)CCc5ccc6n5[B-](F)(F)[N+]5=C(c7ccc[nH]7)C=CC5=C6)cc4)cc3)nc2n(CCC)c1=O [XAC-3-NB590] | 0.78 | 1.33 | –
O=C(CCc1ccc2n1[B-](F)(F)[N+]1=C(c3ccc[nH]3)C=CC1=C2)NCc1ccc(C(=O)NCCOCCOCCNCC(O)COc2cccc3ccccc23)cc1 (centres unmarked) [Propranolol-3-NB590] | – | – | NanoBRET Fold Response (FZD1, 0.1μM): 0.97; NanoBRET Fold Response (FZD1, 1μM): 0.98
O=C(CCc1ccc2n1[B-](F)(F)[N+]1=C(c3ccc[nH]3)C=CC1=C2)NCc1ccc(C(=O)NCCOCCC(=O)N[C@@H]2CC[C@@]3(O)[C@H]4Cc5ccc(O)c6c5[C@@]3(CCN4CC3CC3)[C@H]2O6)cc1 [Naltrexone-3-NB590] | 1.07 | 1.05 | –
CN(CCC=C1c2ccccc2CCc2ccccc21)C(=O)CCOCCOCCOCCOCCNC(=O)CCc1ccc2n1[B-](F)(F)[N+]1=C(c3ccc[nH]3)C=CC1=C2 [Amitriptyline-e-2-NB590] | – | – | NanoBRET Fold Response (tracer at 1μM): 0.98
N#CN=C(NCCCOc1cccc(CN2CCCCC2)c1)NCCNC(=O)CCOCCOCCOCCOCCNC(=O)CCc1ccc2n1[B-](F)(F)[N+]1=C(c3ccc[nH]3)C=CC1=C2 [Aminopotentidine-2-NB590] | 1.07 | 1.12 | –
COc1ccc2c(n1)c(CCNC(C)=O)cn2CCNC(=O)CCc1ccc2n1[B-](F)(F)[N+]1=C(c3ccc[nH]3)C=CC1=C2 [Azamelatonin-1-NB590] | – | – | NanoBRET Fold Response (0.1μM tracer): 1.10; NanoBRET Fold Response (1μM tracer): 1.10
CC(C)N(CC[C@H](c1ccccc1)c1cc(CCNC(=O)c2ccc(CNC(=O)CCc3ccc4n3[B-](F)(F)[N+]3=C(c5ccc[nH]5)C=CC3=C4)cc2)ccc1O)C(C)C [Tolterodine-BZ-NB590] | 1.04 | 0.95 | –
CN1CCN(C2=Nc3cc(Cl)ccc3Nc3ccc(CNC(=O)CCOCCOCCOCCOCCNC(=O)CCc4ccc5n4[B-](F)(F)[N+]4=C(c6ccc[nH]6)C=CC4=C5)cc32)CC1 [Clozapine-b-2-NB590] | – | – | NanoBRET Fold Response (FZD1, 0.1μM tracer): 1.00; NanoBRET Fold Response (FZD1, 1μM tracer): 0.99
